Source: ChEMBL document CHEMBL4014354, “2'-Chloro,2'-fluoro Ribonucleotide Prodrugs with Potent Pan-genotypic Activity against Hepatitis C Virus Replication in Culture” (J Med Chem, 2017)

Legend:
Hepatitis C virus [1] = test: Antiviral activity against HCV genotype 1b harboring wild type NS5B infected in human HuH7 cells assessed as inhibition of viral RNA replication after 5 days by RT-PCR method; format: functional, cell-based, Hepacivirus hominis; conditions: Huh-7, 120 h
[2] = Cytotoxicity against human HuH7 cells assessed as inhibition of cell proliferation after 4 days by MTS assay; format: cell-based, Huh-7
[3] = Cytotoxicity against human PBMC assessed as inhibition of cell proliferation after 5 days by MTT assay; format: cell-based
[4] = Cytotoxicity against human CEM cells assessed as inhibition of cell proliferation after 4 days by MTT assay; format: cell-based, CCRF-CEM
[5] = Cytotoxicity against African green monkey Vero cells assessed as inhibition of cell proliferation after 3 days by MTT assay; format: cell-based; conditions: chlorocebus sabaeus
in vitro [6] = conditions: human, liver microsomes
Description: Half life in human liver microsomes at 1 uM by LC-MS/MS analysis

in vitro [7] = conditions: human, liver microsomes; remark: listed apart in the source
Description: Clearance in human liver microsomes at 1 uM by LC-MS/MS analysis

in vitro [8] = conditions: human, liver microsomes; remark: listed apart in the source
Description: Metabolic stability in human liver microsomes assessed as parent compound remaining at 1 uM at 60 mins by LC-MS/MS analysis

Hepatitis C virus [9] = test: Antiviral activity against HCV genotype 1a infected in human HuH7 cells assessed as inhibition of viral RNA replication after 96 hrs by RT-PCR method; format: functional, cell-based, Hepacivirus hominis; conditions: subtype 1a, Huh-7, 96 h
Hepatitis C virus [10] = test: Antiviral activity against HCV genotype 1b infected in human HuH7 cells assessed as inhibition of viral RNA replication after 96 hrs by RT-PCR method; format: functional, cell-based, Hepacivirus hominis; conditions: Huh-7, 96 h
Hepatitis C virus [11] = test: Antiviral activity against HCV genotype 2a/k infected in human HuH7 cells assessed as inhibition of viral RNA replication after 96 hrs by RT-PCR method; format: functional, cell-based, Hepacivirus hominis; conditions: Huh-7, 96 h
Hepatitis C virus [12] = test: Antiviral activity against HCV genotype 2b infected in human HuH7 cells assessed as inhibition of viral RNA replication after 96 hrs by RT-PCR method; format: functional, cell-based, Hepacivirus hominis; conditions: Huh-7, 96 h
Hepatitis C virus [13] = test: Antiviral activity against HCV genotype 3a infected in human HuH7 cells assessed as inhibition of viral RNA replication after 96 hrs by RT-PCR method; format: functional, cell-based, Hepacivirus hominis; conditions: Huh-7, 96 h
Hepatitis C virus [14] = test: Antiviral activity against HCV genotype 4 infected in human HuH7 cells assessed as inhibition of viral RNA replication after 96 hrs by RT-PCR method; format: functional, cell-based, Hepacivirus hominis; conditions: genotype 4, Huh-7, 96 h
[15] = tested on: cytochrome c oxidase subunit 2 DNA (mitochondrial DNA) levels; test: Mitochondrial toxicity in human HepG2 cells assessed as inhibition of cytochrome c oxidase subunit 2 DNA levels at 50 uM measured on day 14 by RT-PCR method relative to nuclear beta-actin DNA levels; format: cell-based
nuclear DNA levels [16] = test: Cytotoxicity against human HepG2 cells assessed as inhibition of nuclear DNA levels at 50 uM measured on day 14 by RT-PCR method relative to nuclear beta-actin DNA levels; format: cell-based; conditions: read-out: INH
[17] = tested on: cytochrome c oxidase subunit 2 DNA (mitochondrial DNA) levels; test: Mitochondrial toxicity in human HepG2 cells assessed as inhibition of cytochrome c oxidase subunit 2 DNA levels measured on day 14 by RT-PCR method; format: cell-based
HepG2 [18] = test: Cytotoxicity against human HepG2 cells assessed as inhibition of nuclear DNA levels measured on day 14 by RT-PCR method; conditions: HepG2, 336 h
HepG2 [19] = test: Mitochondrial toxicity in human HepG2 cells assessed as cytochrome c oxidase subunit 2 DNA levels at 10 uM measured on day 14 by RT-PCR method relative to nuclear beta-actin DNA levels; conditions: hepg2, 10 µM
HepG2 [20] = test: Mitochondrial toxicity in human HepG2 cells assessed as cytochrome c oxidase subunit 2 DNA levels at 50 uM measured on day 14 by RT-PCR method relative to nuclear beta-actin DNA levels; format: cell-based; conditions: hepg2, 50 µM
HepG2 [21] = test: Mitochondrial toxicity in human HepG2 cells assessed as lactic acid production at 10 uM measured on day 14 by spectrophotometric method relative to control; format: cell-based; conditions: hepg2, 10 µM
HepG2 [22] = test: Mitochondrial toxicity in human HepG2 cells assessed as lactic acid production at 50 uM measured on day 14 by spectrophotometric method relative to control; format: cell-based; conditions: hepg2, 50 µM
[23] = tested on: cytochrome c oxidase subunit 2 DNA (mitochondrial DNA) levels; test: in vitro; conditions: human, HepG2 cells
nuclear DNA levels [24] = test: in vitro; conditions: human, HepG2 cells
[25] = Inhibition of RNA polymerase 2 isolated from human HeLa cell nuclear extract assessed as decrease in incorporation of P32-alpha-CTP after 2 hrs by scintillation counting method; format: cell-free
DNA polymerase beta = DNA polymerase beta (Homo sapiens, UniProt P06746); test: Inhibition of human DNA polymerase beta using 5' end radiolabeled 24nt DNA/48nt DNA as primer/template after 5 mins by PAGE analysis
[26] = Inhibition of human DNA polymerase gamma using 5' end radiolabeled 24nt DNA/36nt DNA as primer/template after 120 mins by PAGE analysis

SMILES	EC50 (Hepatitis C virus [1])	EC90 (Hepatitis C virus [1])	CC50 at 96 h [2]	CC50 at 120 h [3]	CC50 at 96 h [4]	CC50 at 72 h [5]	also measured
CC(C)OC(=O)[C@H](C)NP(=O)(OC[C@H]1O[C@@H](n2cnc3c(=O)[nH]c(N)nc32)[C@@](F)(Cl)[C@@H]1O)Oc1ccccc1 (some centres undefined)	0.3 µM	0.8 µM	> 10 µM	> 100 µM	> 100 µM	> 100 µM	
C[C@]12CC[C@H]3[C@@H](CCC4=CC(=O)CC[C@@]43C)[C@@H]1CC[C@@H]2O [TESTOSTERONE]							half-life at 1 µM (in vitro [6]): 15 min; microsomal CLint at 1 µM (in vitro [7]): 92 µL/min/mg; remaining at 1 h, 1 µM (in vitro [8]): 6.3%
C[C@@]1(F)[C@H](O)[C@@H](CO)O[C@H]1n1ccc(=O)[nH]c1=O							IC50 (Hepatitis C virus [9]): > 100 µM; IC50 (Hepatitis C virus [10]): > 100 µM; IC50 (Hepatitis C virus [11]): > 100 µM; IC50 (Hepatitis C virus [12]): > 100 µM; IC50 (Hepatitis C virus [13]): > 100 µM; IC50 (Hepatitis C virus [14]): > 100 µM
CC(C)OC(=O)[C@H](C)NP(=O)(OC[C@H]1O[C@@H](n2cnc3c(N)ncnc32)C(F)(Cl)C1O)Oc1ccccc1 (single isomer, unassigned)	0.6 µM	2.1 µM	> 33 µM	84.8 µM	36.3 µM	53.9 µM	
CC(C)OC(=O)[C@H](C)NP(=O)(OC[C@H]1O[C@@H](n2cc(F)c3c(N)ncnc32)C(F)(Cl)C1O)Oc1ccccc1 (single isomer, unassigned)	> 10 µM	> 10 µM	> 10 µM	99.7 µM	55.3 µM	60.9 µM	
Nc1ncnc2c1c(I)cn2[C@@H]1O[C@H](CO)C(O)C1(F)Cl (single isomer, unassigned)	> 10 µM	> 10 µM	> 10 µM	6.6 µM	7.3 µM	11.5 µM	
O=c1ccn([C@@H]2O[C@H](CO)[C@@H](O)[C@]2(F)Cl)c(=O)[nH]1	> 100 µM	> 100 µM	> 100 µM	> 100 µM	> 100 µM	> 100 µM	IC50 (Hepatitis C virus [9]): > 60 µM; IC50 (Hepatitis C virus [10]): > 60 µM; IC50 (Hepatitis C virus [11]): > 60 µM; IC50 (Hepatitis C virus [12]): > 60 µM; IC50 (Hepatitis C virus [13]): > 60 µM; IC50 (Hepatitis C virus [14]): > 60 µM; inhibition at 14 days, 50 µM [15]: < 1%; cytotoxicity at 14 days, 50 µM (nuclear DNA levels [16]): < 1%; IC50 at 14 days [17]: > 50 µM; IC50 (HepG2 [18]): > 50 µM; Activity (HepG2 [19]): 160%; Activity (HepG2 [20]): 120%; Activity (HepG2 [21]): 85%; Activity (HepG2 [22]): 120%; inhibition at 14 days, 10 µM [23]: < 1%; cytotoxicity at 14 days, 10 µM (nuclear DNA levels [24]): 8.8%
CC[C@H](C)[C@@H]1NC(=O)CNC(=O)[C@@H]2Cc3c([nH]c4cc(O)ccc34)[S+]([O-])C[C@@H](NC(=O)CNC1=O)C(=O)N[C@@H](CC(N)=O)C(=O)N1C[C@H](O)C[C@H]1C(=O)N[C@@H]([C@@H](C)[C@@H](O)CO)C(=O)N2 (stereo partly drawn) [alpha-Amanitin]							IC50 [25]: 0.0025 µM
CC(C)OC(=O)[C@H](C)NP(=O)(OC[C@H]1O[C@@H](n2ccc3c(N)ncnc32)C(F)(Cl)C1O)Oc1ccccc1 (single isomer, unassigned)	> 10 µM	> 10 µM	> 10 µM	> 100 µM	69 µM	> 100 µM	
Cc1cn([C@H]2CC[C@@H](COP(=O)(O)OP(=O)(O)OP(=O)(O)O)O2)c(=O)[nH]c1=O							IC50 (DNA polymerase beta): 19 µM; IC50 [26]: 43 µM
Nc1ccn([C@@H]2CS[C@H](CO)O2)c(=O)n1 [LAMIVUDINE]							IC50 at 14 days [17]: > 10 µM
Nc1ncnc2c1ncn2[C@@H]1O[C@H](CO)C(O)C1(F)Cl (single isomer, unassigned)	> 10 µM	> 10 µM	> 10 µM	> 100 µM	> 100 µM	> 100 µM	
Nc1ccn([C@H]2CC[C@@H](CO)O2)c(=O)n1 [ZALCITABINE]							IC50 at 14 days [17]: < 10 µM; IC50 (HepG2 [18]): < 10 µM; Activity (HepG2 [19]): 9.5%; Activity (HepG2 [21]): 330%; inhibition at 14 days, 10 µM [23]: 96%; cytotoxicity at 14 days, 10 µM (nuclear DNA levels [24]): 53%
O=C(O)Cc1ccccc1Nc1c(Cl)cccc1Cl [DICLOFENAC]							half-life at 1 µM (in vitro [6]): 8.9 min; microsomal CLint at 1 µM (in vitro [7]): 156 µL/min/mg; remaining at 1 h, 1 µM (in vitro [8]): 1.2%
Nc1ncnc2c1ccn2[C@@H]1O[C@H](CO)C(O)C1(F)Cl (single isomer, unassigned)	> 10 µM	> 10 µM	> 10 µM				
Nc1ncnc2c1c(F)cn2[C@@H]1O[C@H](CO)C(O)C1(F)Cl (single isomer, unassigned)	> 10 µM	> 10 µM	> 10 µM	82.6 µM	19.9 µM	42.4 µM	
Nc1ccn([C@@H]2O[C@H](CO)[C@@H](O)[C@]2(F)Cl)c(=O)n1	0.3 µM	0.9 µM	> 10 µM	12 µM	> 100 µM	8.4 µM	
CC(C)OC(=O)[C@H](C)NP(=O)(OC[C@H]1O[C@@H](n2ccc(N)nc2=O)[C@@](F)(Cl)[C@@H]1O)Oc1ccccc1 (some centres undefined)	0.1 µM	0.3 µM	> 10 µM	> 100 µM	> 100 µM	> 100 µM	
C[C@@]1(O)[C@H](O)[C@@H](CO)O[C@H]1n1ccc(N)nc1=O	1.7 µM	6.5 µM	> 10 µM	> 100 µM	> 100 µM	> 100 µM	
CC(C)OC(=O)[C@H](C)NP(=O)(OC[C@H]1O[C@@H](n2cc(I)c3c(N)ncnc32)C(F)(Cl)C1O)Oc1ccccc1 (single isomer, unassigned)	> 10 µM	> 10 µM	> 10 µM	> 100 µM	69.3 µM	> 100 µM	
Nc1nc2c(ncn2[C@@H]2O[C@H](CO)[C@@H](O)[C@]2(F)Cl)c(=O)[nH]1	19 µM	33 µM	> 33 µM	> 100 µM	> 100 µM	> 100 µM	
